Assays:
prolactin = test: Serum prolactin in treated mice; type: in vivo; conditions: for serum prolactin: immunized and unimmunized mice
[1] = test system: bone marrow-derived macrophages; test: Bone marrow-derived macrophages treated in vitro with or without LPS; conditions: for macrophage viability (MTT dye reduction): presence or absence of LPS
Protocol: Identification of how risperidone alters pro-inflammatory and/or anti-inflammatory immune responses is necessary.
Studies were conducted herein to evaluate the regulation of macrophage proinflammatory responses in vitro.

[2] = Body weight of treated normal and immunized mice; conditions: for body weight in normal mice: normal (unimmunized) mice
EAE [3] = test: EAE model in BALB/c mice immunized with PLP peptide
cholinergic receptors = conditions: cited from earlier work
[4] = target: dopaminergic D2 receptors (Homo sapiens, UniProt P14416); conditions: cited from earlier work
al-adrenergic receptors = conditions: cited from earlier work
α2-adrenergic receptors = conditions: cited from earlier work
EAE [5] = test: EAE model in IL-4Ra-deficient BALB/c mice; type: in vivo; conditions: BALB/c mice deficient in IL-4Ra
[6] = test system: splenic macrophages (F4/80+ cells); test: Activation markers on splenic macrophages of immunized mice at peak disease (flow cytometry); type: in vivo, C57BL/6 mice; conditions: risperidone 3 mg/kg/day
Protocol: Studies were also conducted herein to evaluate the regulation of macrophage proinflammatory responses in vivo.

[7] = Pajonk, 2004, cited from earlier work
[8] = test system: auto-reactive T cell responses; test: Cytokine production and T cell proliferation in response to MOG antigen or ConA, cells from treated immunized mice; type: cell-based, C57BL/6 mice
Excerpt: (§1) Shown are the mean and standard error of the mean (n=5 mice per group).
as §1, §1, §1, §1, §1
FIG. 5A illustrates exemplary antigen specific (L-17 production (pg/ml) in C57BL/6 mice, which were treated with risperidone or vehicle alone, and immunized to induce EAE 40 days earlier. Shown are the mean and standard error of the mean (n=5-10 mice per group).
FIG. 5B illustrates exemplary antigen specific interferon y production (pg/ml) in C57BL/6 mice, which were treated with risperidone or vehicle alone, and immunized to induce EAE 40 days earlier. Shown are the mean and standard error of the mean (n=5-10 mice per group).
FIG. 5C illustrates exemplary antigen specific IL-10 production (pg/ml) in C57BL/6 mice, which were treated with risperidone or vehicle alone, and immunized to induce EAE 40 days earlier. Shown are the mean and standard error of the mean (n=5-10 mice per group).
FIG. 5D illustrates exemplary T cell proliferation in counts per minute in immunized and normal C57BL/6 mice, which were treated with risperidone or vehicle alone. Shown are the mean and standard error of the mean (n=5-10 mice per group).
(§2) The effect of drug […] draining lymph node (LN) cells and splenocytes from untreated and risperidone-treated, immunized or unimmunized mice. Cytokine production in response to myelin oligodendrocyte glycoprotein antigen (MOG) can be assessed by cytokine bead assay, which measures 10 cytokines simultaneously, or ELISA, and proliferation can be measured by ^3H thymidine uptake. Cellular profiles in the spleen and lymph node cells can be determined by flow cytometric analysis and can include markers for helper T cells, T regulatory cells, and macrophages.

microglia = test: Microglial reactivity by Iba-1 expression in brains of immunized mice; type: in vivo
Protocol: FIG. 9A illustrates exemplary Iba-1 expression on microglia in the cerebellum of mice. […] Tissue samples were taken at peak disease (15 days post immunization). Shown are the scores for microglia reactivity (Iba score) and disease.
One group (risperidone d11) was immunized but only received risperidone treatment starting at day 11 (i.e. after disease onset). Scores for Iba-1 reactivity were assessed blinded and derived from a combined score for Iba intensity (0-3) and # Iba+ foci (0-3).
Scores for Iba-1 reactivity were assessed blinded and derived from a combined score (0-6) for Iba intensity (0-3) and number of Iba+ foci (0-3). Scores for the following brain regions were combined: cerebellum, brain stem, hippocampus, and olfactory bulb (0-24).
Scores for Iba-1 reactivity in the cerebellum were assessed blinded and derived from a combined score (0-6) for Iba intensity (0-3) and number of Iba+ foci (0-3).
Studies were performed to assess microglial reactivity via the expression of Iba-1 (FIG. 9A-F).

EAE [9] = test system: EAE
Protocol: FIG. 1A illustrates an exemplary treatment of C57BL/6 mice with risperidone (administered in drinking water; 3 mg/kg/day) following immunization to induce EAE with MOG (myelin oligodendrocyte glycoprotein) peptide in complete Freund's adjuvant. Disease score is based on the progressive ascending paralysis that characterizes EAE in this animal model where 0=normal and 5=complete body paralysis (i.e. moribund).
FIG. 1B illustrates an exemplary treatment of C57BL/6 mice with risperidone (administered in drinking water; 3 mg/kg/day) following immunization to induce EAE. The data is from 4 separate and independent experiments.
AUC was measured from days 0-26 and the results are from 4 separate and independent experiments.
In these preliminary studies risperidone was given in the drinking water at a calculated dose of 1 or 3 mg/kg/day.
Commonly this time period is between 13-20 days post immunization with myelin oligodendrocyte glycoprotein (50 μg/mouse) in complete Freund's adjuvant and injected i.p with pertussis toxin (200 ng/mouse) on days 0 and 2. Treatment during the “chronic” stage (when disease scores remain stable) may begin 30 days post immunization with myelin oligodendrocyte glycoprotein. For all of these studies, the optimal dose of risperidone may be used as determined by the experiments described above. […] This model is well established and has the added benefit of having many different immunological reagents available for use in the C57BL/6 system.

splenocytes = test: Cellular profile of spleen in treated mice (flow cytometry); type: in vivo, C57BL/6 mice
Excerpt: as §2, with “drug treatment on antigen-specific immune responses can be determined at 8 (pre-onset),” for “drug”

[10] = test system: bone marrow-derived macrophages; conditions: positive control; La Flamme, unpublished results; cited from earlier work
[11] = 20 μg/ml risperidone or 10 μ/ml clozapine
[12] = 20 μg/ml risperidone or 10 μ/ml clozapine, versus vehicle-treated macrophages
[13] = chronic stage, 40 days post immunization
[14] = peak disease, 21 days post immunization
[15] = chronic stage of disease, 40 days after immunization

Chain of dopaminergic D2 receptors (P14416 whole entry): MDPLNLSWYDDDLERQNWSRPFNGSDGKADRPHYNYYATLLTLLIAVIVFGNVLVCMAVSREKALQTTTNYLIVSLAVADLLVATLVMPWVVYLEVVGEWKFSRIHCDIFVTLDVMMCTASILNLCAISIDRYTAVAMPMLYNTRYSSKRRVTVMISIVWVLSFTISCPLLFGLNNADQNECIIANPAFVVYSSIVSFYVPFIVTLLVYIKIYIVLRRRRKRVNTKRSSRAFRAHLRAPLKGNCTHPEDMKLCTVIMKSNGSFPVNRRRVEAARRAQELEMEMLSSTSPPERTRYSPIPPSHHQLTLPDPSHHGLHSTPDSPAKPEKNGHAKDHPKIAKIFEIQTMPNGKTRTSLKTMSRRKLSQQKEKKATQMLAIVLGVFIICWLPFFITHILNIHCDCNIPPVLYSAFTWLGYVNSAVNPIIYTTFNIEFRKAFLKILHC

## CN1CCN(C2=Nc3cc(Cl)ccc3Nc3ccccc32)CC1 [clozapine]
prolactin
  serum prolactin: not observed
[1]; [11]
  macrophage viability (MTT dye reduction): fully viable
[2]
  body weight in normal mice: promotes weight gain

## Cc1nc2n(c(=O)c1CCN1CCC(c3noc4cc(F)ccc34)CC1)CCCC2 [risperidone, 3-[2-[4-(6-fluoro-1,2-benzisoxazol-3-yl)-1-piperidinyl]ethyl]-6,7,8,9-tetrahydro-2-methyl-4H-pyrido[1,2-a]pyrimidin-4-one]
prolactin; BALB/c mice
  serum prolactin (hyperprolactinemia): develop hyperprolactinemia
prolactin; IL-4Ra-deficient BALB/c mice
  serum/plasma prolactin (hyperprolactinemia): develop hyperprolactinemia
prolactin
  serum prolactin: high levels of serum prolactin
EAE [3]; 2 independent experiments, same for vehicle group
  % incidence: 73%
EAE [3]; oral, from one day before immunization with PLP
  disease severity: significantly reduced disease severity
Cholinergic receptors
  affinity for cholinergic receptors: no affinity
[4]
  affinity for dopaminergic D2 receptors: high affinity
al-adrenergic receptors
  binding to al-adrenergic receptors: binds
[1]; [11]
  macrophage viability (MTT dye reduction): fully viable
[1]; [12]
  IL-12 production in response to LPS: produce less
  NO production in response to LPS: produce less
[1]; risperidone 20 μg/ml, versus vehicle-treated macrophages
  IL-10 production in response to LPS: produce more
α2-adrenergic receptors
  affinity for α2-adrenergic receptors: lower affinity
EAE [5]
  reduction in disease symptoms: do not experience a reduction in disease symptoms
EAE [5]; 2 independent experiments
  % incidence versus vehicle: no difference in % incidence
[6]
  CD40 expression on splenic macrophages: reduced CD40 expression
  number of CD40-expressing splenic macrophages: not reduced
[6]; clozapine 30 mg/kg/day, versus vehicle-treated immunized mice
  MHC class II expression on splenic macrophages: reduced MHC class II expression
[7]
  maximum tolerated dose in mice: unable to identify a maximum tolerated dose
[7]; mice treated daily with doses up to 10 mg/kg/day for 18 months
  toxicity: no toxicity
[8]; 21 days post immunization
  production of IL-10 with polyclonal stimulus (ConA): no alteration
  production of INF-γ with polyclonal stimulus (ConA): no alteration
[8]; [13]
  MOG specific IFN-γ production: enhance
  MOG-specific IL-10 production: no effect
  MOG-specific IL-17 production: no effect
  MOG-specific proliferation: no effect
[8]; [14]
  production of IFN-γ in response to MOG antigen: does not alter
  production of IL-10 in response to MOG antigen: significantly reduce
  production of IL-17 in response to MOG antigen: significantly reduce
[2]; mice immunized with MOG peptide
  weight loss associated with EAE: reduce the weight loss
[2]
  body weight in normal mice: promotes weight gain
microglia; immunized mice, peak disease (15 days post immunization), cerebellum, brain stem, hippocampus, olfactory bulb
  microglial reactivity (Iba-1 expression): greatly reduced
microglia; treatment starting at day 11 post-immunization, assessed on day 15
  microglial reactivity (Iba-1 expression), treatment after disease onset: reduces microglial reactivity
EAE [9]; 3 mg/kg/day, p<0.0001 by 2-way ANOVA
  protective effect in dose-response: significant protective effect
EAE [9]; AUC of disease score, risperidone days 0-26, 4 independent experiments
  area under the curve (AUC), total disease burden: reduction
EAE [9]; drinking water from one day before immunization
  average disease score during the chronic stage: stable reduction
EAE [9]; risperidone 1 or 3 mg/kg/day, immunized or unimmunized mice, aside from slight weight gain
  detrimental effects on the mice: no detrimental effects
EAE [9]; risperidone 3 vs 1 mg/kg/day, clozapine 30 vs 15 mg/kg/day
  efficacy of higher versus lower dose: 3 mg/kg/day is more effective
EAE [9]; risperidone daily from the time of immunization
  time of onset or incidence of EAE: does not alter
splenocytes; [15]
  number of helper T cells (CD4+CD25−) in the spleen: does not alter
  number of neutrophils (Gr1+ cells) in the spleen: reduce
  number of regulatory T cells (CD4+CD25+ Treg) in the spleen: enhance
splenocytes; peak disease (day 21), risperidone 3 mg/kg/day, clozapine 30 mg/kg/day, unimmunized and immunized mice
  overall immune cells in the spleen (total splenocyte numbers): does not result in overall loss

## Glatiramer acetate
[10]
  pro-inflammatory (IL-12) cytokine production by LPS-stimulated macrophages: reduce

Source: US20130190299A1, “METHODS AND COMPOSITIONS FOR TREATMENT OF MULTIPLE SCLEROSIS” (Victoria Link Ltd., priority 2010, published 2013)
